Publication PMC5892408, “Novel dual-function near-infrared II fluorescence and PET probe for tumor delineation and image-guided surgery” (Chemical Science, 2018)

Assay: Photostability under continuous 808 nm laser illumination
Format: physicochemical
Details: same conditions as CHS2; 808 nm laser illumination (82 mW cm^-2) for 1 h
Procedure: Fig. 2 (a) Fluorescence emission of CHS2 under 808 nm excitation; (b) photostability of CHS2 in water, PBS and serum under 808 nm laser illumination (105 mW cm^–2) for 1 h; (c) photostability of ICG vs.CHS2 under 808 nm laser illumination (82 mW cm^–2) for 1 h; (d) cellular toxicity of different concentrations of CHS2 in U87MG cell lines.

CC1(C)C(/C=C/C=C/C=C/C=C2\N(CCCCS(=O)(=O)O)c3ccc4ccccc4c3C2(C)C)=[N+](CCCCS(=O)(=O)[O-])c2ccc3ccccc3c21 [ICG, indocyanine green]
photostability (fluorescence decay): ~50%
